Source: PubChem BioAssay AID330 (DTP/NCI, 2004)
“And” between values parts separate entries of the source, which are not always exact repeats. Equal entries are not always repeated. Toxic doses and inconclusive results are not listed. Peptide text beside a SMILES is read from it.

Test system: P388 leukemia ip, CD2F1 mice, survival T/C
Test: NCI In Vivo Anticancer Drug Screen. Data for tumor model P388 Leukemia (intraperitoneal) in CD2F1 (CDF1) mice
Settings: endpoint: median survival time, higher = longer survival
Summary of the method: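 Mice carrying the transplanted tumor received test compound or vehicle. Survival was recorded in each group, and the value is the treated-group measurement divided by that of the vehicle-treated control group.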

[1] = dose: 50.0 mg/kg/injection, schedule: Q01DX005 (ip), vehicle: saline with Tween-80
[2] = dose: 100.0 mg/kg/injection, schedule: Q01DX005 (ip), vehicle: saline with Tween-80
[3] = dose: 200.0 mg/kg/injection, schedule: Q01DX005 (ip), vehicle: saline with Tween-80
[4] = dose: 50.0 mg/kg/injection, schedule: Q01DX005 (ip), vehicle: Klucel (hydroxypropylcellulose) (HPC)
[5] = dose: 200.0 mg/kg/injection, schedule: Q01DX005 (ip), vehicle: Klucel (hydroxypropylcellulose) (HPC)
[6] = dose: 12.5 mg/kg/injection, schedule: Q01DX005 (ip), vehicle: Klucel (hydroxypropylcellulose) (HPC)
[7] = dose: 12.5 mg/kg/injection, schedule: Q01DX009 (ip), vehicle: saline with Tween-80
[8] = dose: 25.0 mg/kg/injection, schedule: Q01DX009 (ip), vehicle: saline with Tween-80
[9] = dose: 100.0 mg/kg/injection, schedule: Q01DX009 (ip), vehicle: saline with Tween-80
[10] = dose: 100.0 mg/kg/injection, schedule: Q04DX003 (ip), vehicle: saline with Tween-80
[11] = dose: 200.0 mg/kg/injection, schedule: Q04DX003 (ip), vehicle: saline with Tween-80

Q: How did the T/C [1] turn out when `O=C(O)c1cccc(C(=O)O)c1S(=O)Cc1ccccc1` (stereo not given) was run?
A: 102 % of control

Q: And the T/C [2]?
A: 93 % of control

Q: What about the T/C [3] of the same compound?
A: 105 % of control

Q: `C[CH2][Pb]([CH2]C)([CH2]C)[O]C(=O)COc1ccccc1` was tested. Which T/C (dose: 1.5 mg/kg/injection, schedule: Q04DX003 (ip), vehicle: Klucel (hydroxypropylcellulose) (HPC)) did it give?
A: 100 % of control

Q: And the T/C (dose: 3.0 mg/kg/injection, schedule: Q04DX003 (ip), vehicle: Klucel (hydroxypropylcellulose) (HPC))?
A: 100 % of control

Q: And the T/C (dose: 6.0 mg/kg/injection, schedule: Q04DX003 (ip), vehicle: Klucel (hydroxypropylcellulose) (HPC))?
A: 106 % of control

Q: For `CC(=O)NC(Cc1ccccc1)C(=O)NC(Cc1ccccc1)C(=O)O` (stereo not drawn) (Ac-Phe-Phe-OH; configuration not given here), which T/C [1] is on record?
A: 107 % of control

Q: And the T/C [2]?
A: 103 % of control

Q: What about the T/C [3] of the same compound?
A: 94 % of control

Q: How did the T/C (dose: 6.0 mg/kg/injection, schedule: Q01DX005 (ip), vehicle: Klucel (hydroxypropylcellulose) (HPC)) turn out when `O=C(NC1CCCCC1NC(=O)C12CC3CC(CC(C3)C1)C2)C12CC3CC(CC(C3)C1)C2` (stereo not given) was run?
A: 95 % of control

Q: And the T/C (dose: 12.0 mg/kg/injection, schedule: Q01DX005 (ip), vehicle: Klucel (hydroxypropylcellulose) (HPC))?
A: 88 % of control

Q: What about the T/C [4] of the same compound?
A: 88 % of control

Q: And the T/C [5]?
A: 92 % of control

Q: Which results are given for `CCOC(=O)CCC(NC(=O)c1ccc(NCc2cnc3nc(N)nc(N)c3c2)cc1)C(=O)OCC` (stereo not given)?
A: T/C (dose: 0.25 mg/kg/injection, schedule: Q01DX005 (ip), vehicle: saline with Tween-80): 162 % of control; T/C (dose: 0.5 mg/kg/injection, schedule: Q01DX005 (ip), vehicle: saline with Tween-80): 158 % of control and 183 % of control; T/C (dose: 1.0 mg/kg/injection, schedule: Q01DX005 (ip), vehicle: saline with Tween-80): 183 % of control and 218 % of control; T/C (dose: 2.0 mg/kg/injection, schedule: Q01DX005 (ip), vehicle: saline with Tween-80): 104 % of control; T/C (dose: 125.0 micrograms/kg/injection, schedule: Q01DX005 (ip), vehicle: saline with Tween-80): 114 % of control; T/C (dose: 1000.0 micrograms/kg/injection, schedule: Q01DX005 (ip), vehicle: saline with Tween-80): 151 % of control

Q: How did the T/C (dose: 200.0 mg/kg/injection, schedule: Q01DX001 (ip), vehicle: saline with Tween-80) turn out when `Cn1cnc2c1c(=O)n(C(C(N)=O)C(N)=O)c(=O)n2C` was run?
A: 104 % of control

Q: What about the T/C (dose: 400.0 mg/kg/injection, schedule: Q01DX001 (ip), vehicle: saline with Tween-80) of the same compound?
A: 101 % of control

Q: What does the source list for `FC(F)(F)C1(C(F)(F)F)OI2(Br)(OC(C(F)(F)F)(C(F)(F)F)c3ccccc32)c2ccccc21`?
A: T/C (dose: 6.25 mg/kg/injection, schedule: Q01DX005 (ip), vehicle: Klucel (hydroxypropylcellulose) (HPC)): 99 % of control; T/C [6]: 97 % of control

Q: What does the source list for `CCCCC(NC(=O)C(Cl)Cl)C(=O)O` (stereo not given)?
A: T/C [4]: 94 % of control; T/C (dose: 100.0 mg/kg/injection, schedule: Q01DX005 (ip), vehicle: Klucel (hydroxypropylcellulose) (HPC)): 98 % of control; T/C [5]: 88 % of control

Q: `CCCCCCCCCCCCCCCCC(C(=O)O)C(O)(CC(=O)O)C(=O)O` (stereo not given) was tested. Which T/C (dose: 8.75 mg/kg/injection, schedule: Q01DX009 (ip), vehicle: Klucel (hydroxypropylcellulose) (HPC)) did it give?
A: 95 % of control

Q: And the T/C [7]?
A: 91 % of control

Q: And the T/C (dose: 17.5 mg/kg/injection, schedule: Q01DX009 (ip), vehicle: Klucel (hydroxypropylcellulose) (HPC))?
A: 101 % of control

Q: And the T/C [8]?
A: 94 % of control

Q: What about the T/C (dose: 35.0 mg/kg/injection, schedule: Q01DX009 (ip), vehicle: Klucel (hydroxypropylcellulose) (HPC)) of the same compound?
A: 95 % of control

Q: What about the T/C (dose: 70.0 mg/kg/injection, schedule: Q01DX009 (ip), vehicle: Klucel (hydroxypropylcellulose) (HPC)) of the same compound?
A: 87 % of control

Q: And the T/C [9]?
A: 90 % of control

Q: With `O=c1[nH]c2cc(Cl)ccc2nc1/C=C(\O)c1ccc(O)cc1` as the compound, how does the T/C (dose: 60.0 mg/kg/injection, schedule: Q01DX005 (ip), vehicle: saline with Tween-80) read?
A: 102 % of control

Q: What about the T/C (dose: 120.0 mg/kg/injection, schedule: Q01DX005 (ip), vehicle: saline with Tween-80) of the same compound?
A: 95 % of control

Q: And the T/C (dose: 240.0 mg/kg/injection, schedule: Q01DX005 (ip), vehicle: saline with Tween-80)?
A: 95 % of control

Q: Which T/C (dose: 100.0 mg/kg/injection, schedule: Q01DX005 (ip), vehicle: saline) does the source give for `Cc1c(O)c(O)cc[n+]1C1OC(CO)C(O)C1O` (stereo not given) here?
A: 98 % of control

Q: And the T/C (dose: 200.0 mg/kg/injection, schedule: Q01DX005 (ip), vehicle: saline)?
A: 100 % of control

Q: What about the T/C (dose: 400.0 mg/kg/injection, schedule: Q01DX005 (ip), vehicle: saline) of the same compound?
A: 102 % of control

Q: `C=CC(C)(C)c1c2c(c(OC)c3ccc(=O)oc13)C=CC(C)(C)O2` was tested. Which T/C (dose: 25.0 mg/kg/injection, schedule: Q01DX005 (ip), vehicle: saline with Tween-80) did it give?
A: 105 % of control

Q: And the T/C [1]?
A: 99 % of control and 94 % of control

Q: And the T/C [2]?
A: 96 % of control

Q: Which T/C [1] does the source give for `COc1ccc2c(c1)CCC(C(O)C1(Sc3c(OC)cccc3OC)CC1)C2=O` (stereo not given) here?
A: 100 % of control

Q: And the T/C [2]?
A: 100 % of control

Q: What about the T/C [3] of the same compound?
A: 100 % of control

Q: What does the source list for `O=C(Nc1cccc([N+](=O)[O-])c1)C1C(=O)N(c2cccc([N+](=O)[O-])c2)C(=O)/C1=N/O` (stereo not given)?
A: T/C [1]: 99 % of control; T/C [2]: 95 % of control; T/C [3]: 100 % of control

Q: Which results are given for `O=Nc1c(NO)n(-c2ccccc2)c(=S)n1-c1ccccc1`?
A: T/C [1]: 95 % of control; T/C [2]: 109 % of control; T/C [3]: 104 % of control

Q: Which T/C [6] does the source give for `O=C1C=C(O)C(=O)C(CC2=C(O)C(=O)C=C(O)C2=O)=C1O` here?
A: 101 % of control and 90 % of control

Q: And the T/C (dose: 25.0 mg/kg/injection, schedule: Q01DX005 (ip), vehicle: Klucel (hydroxypropylcellulose) (HPC))?
A: 86 % of control and 90 % of control and 95 % of control

Q: `CCOC(OCC)C(=O)OCC(=O)[C@]1(O)Cc2c(O)c3c(c(O)c2[C@@H](OC2CC(N)C(O)C(C)O2)C1)C(=O)c1c(OC)cccc1C3=O` (stereo not given in full) was tested. Which T/C (dose: 0.13 mg/kg/injection, schedule: Q03HX008 (ip), vehicle: saline) did it give?
A: 111 % of control

Q: And the T/C (dose: 0.25 mg/kg/injection, schedule: Q03HX008 (ip), vehicle: saline)?
A: 117 % of control

Q: And the T/C (dose: 0.5 mg/kg/injection, schedule: Q01DX009 (ip), vehicle: saline)?
A: 160 % of control

Q: And the T/C (dose: 1.0 mg/kg/injection, schedule: Q01DX001 (ip), vehicle: saline)?
A: 118 % of control

Q: What about the T/C (dose: 1.0 mg/kg/injection, schedule: Q01DX009 (ip), vehicle: saline) of the same compound?
A: 173 % of control

Q: And the T/C (dose: 2.0 mg/kg/injection, schedule: Q01DX001 (ip), vehicle: saline)?
A: 123 % of control

Q: What about the T/C (dose: 2.0 mg/kg/injection, schedule: Q01DX009 (ip), vehicle: saline) of the same compound?
A: 245 % of control

Q: What about the T/C (dose: 4.0 mg/kg/injection, schedule: Q01DX009 (ip), vehicle: saline) of the same compound?
A: 198 % of control

Q: What about the T/C (dose: 4.0 mg/kg/injection, schedule: Q03HX008 (ip), vehicle: saline) of the same compound?
A: 168 % of control

Q: What about the T/C (dose: 8.0 mg/kg/injection, schedule: Q03HX008 (ip), vehicle: saline) of the same compound?
A: 88 % of control

Q: And the T/C (dose: 16.0 mg/kg/injection, schedule: Q01DX001 (ip), vehicle: saline)?
A: 170 % of control

Q: And the T/C (dose: 32.0 mg/kg/injection, schedule: Q01DX001 (ip), vehicle: saline)?
A: 189 % of control

Q: What about the T/C (dose: 64.0 mg/kg/injection, schedule: Q01DX001 (ip), vehicle: saline) of the same compound?
A: 87 % of control

Q: How did the T/C (dose: 50.0 mg/kg/injection, schedule: Q01DX009 (ip), vehicle: saline) turn out when `CCOC(=O)C(CC(=O)O)=C(c1ccccc1)c1ccccc1` was run?
A: 107 % of control

Q: What about the T/C (dose: 100.0 mg/kg/injection, schedule: Q01DX009 (ip), vehicle: saline) of the same compound?
A: 100 % of control

Q: And the T/C (dose: 200.0 mg/kg/injection, schedule: Q01DX009 (ip), vehicle: saline)?
A: 107 % of control

Q: For `Cc1ccc2c(=O)n(C)c(=O)n(C)c2n1`, which T/C [7] is on record?
A: 98 % of control

Q: What about the T/C [8] of the same compound?
A: 102 % of control

Q: And the T/C (dose: 50.0 mg/kg/injection, schedule: Q01DX009 (ip), vehicle: saline with Tween-80)?
A: 103 % of control

Q: What about the T/C [9] of the same compound?
A: 103 % of control

Q: Which T/C [10] does the source give for `CC1C=CC(C)N(c2nnnn2C)N1c1nnnn1C` (stereo not given) here?
A: 116 % of control

Q: And the T/C [11]?
A: 106 % of control

Q: What about the T/C (dose: 400.0 mg/kg/injection, schedule: Q04DX003 (ip), vehicle: saline with Tween-80) of the same compound?
A: 100 % of control

Q: Which results are given for `CCOP(=O)(O)CP(=O)(O)OCC.CCOP(=O)(O)CP(=O)(O)OCC.[Cr]`?
A: T/C (dose: 50.0 mg/kg/injection, schedule: Q04DX003 (ip), vehicle: saline with Tween-80): 102 % of control; T/C [10]: 98 % of control; T/C [11]: 99 % of control

Q: With `CCCCCCCCCCCCCC[N+]1([O-])CCOCC1` as the compound, how does the T/C (dose: 25.0 mg/kg/injection, schedule: Q04DX002 (ip), vehicle: saline) read?
A: 104 % of control

Q: And the T/C (dose: 50.0 mg/kg/injection, schedule: Q04DX002 (ip), vehicle: saline)?
A: 104 % of control

Q: What about the T/C (dose: 100.0 mg/kg/injection, schedule: Q04DX002 (ip), vehicle: saline) of the same compound?
A: 104 % of control and 94 % of control

Q: Which results are given for `Nc1c(S(=O)(=O)O)cc(Nc2ccc(S(=O)(=O)O)c(Nc3nc(Cl)nc(Cl)n3)c2)c2c1C(=O)c1ccccc1C2=O`?
A: T/C (dose: 60.0 mg/kg/injection, schedule: Q01DX005 (ip), vehicle: saline): 118 % of control; T/C (dose: 120.0 mg/kg/injection, schedule: Q01DX005 (ip), vehicle: saline): 110 % of control; T/C (dose: 240.0 mg/kg/injection, schedule: Q01DX005 (ip), vehicle: saline): 110 % of control
